pKi: −log10 of the molar value.
Tests used:
HIV [1] = assay: Phase II randomized study atazanavir vs nelfinavir: anti-HIV activity (viral load); assay type: in vivo; details: atazanavir 200, 400 or 500 mg once daily, monotherapy two weeks then with stavudine and didanosine; treatment-naive patients
Experimental: In a Phase II randomized study, the safety and anti-HIV activity of three once daily doses of atazanavir (200 mg, 400 mg and 500 mg) was compared with 750 mg of the protease inhibitor, nelfinavir dosed three times daily. Twenty-one patients received nelfinavir in combination with stavudine and didanosine, while atazanavir was administered both as monotherapy (for two weeks) and then in combination with stavudine and didanosine to 78 treatment-naive (no prior anti-HIV therapy) patients with HIV viral loads >2000 copies per milliliter (c/mL).

[2] = human, in vivo
Excerpt: In clinical studies carried out on 98 HIV-positive patients who have taken atazanavir for one year, no increases in plasma LDL-cholesterol or triglycerides were observed. Thus, atazanavir is particularly useful in the treatment of HIV-positive patients who have elevated plasma LDL-cholesterol and/or triglyceride levels. It can be used as monotherapy or as part of a “cocktail” which would include other antiretroviral drugs such as reverse transcriptase inhibitors, non-nucleoside reverse transcriptase inhibitors, and other HIV protease inhibitors.

CYP3A = assay: Inhibition of cytochrome P450 3A enzyme; assay type: biochemical
Excerpt: Similarly, appropriate dosing of other HIV protease inhibitors to be used in combination with atazanavir can be calculated.

[3] = set-up: species or system human; details: in vivo
Experimental: (§1) In another two-stage, randomized three-arm Phase II study, the antiviral activity and metabolic effects of atazanavir at two different doses (400 mg or 600 mg) was compared to ritonavir, each in combination with saquinavir over 48 weeks. The protease inhibitors were administered in combination with two nucleoside reverse transcriptase inhibitors selected from didanosine, stavudine, lamivudine or zidovudine. The selection of reverse transcriptase inhibitors (used in combination as didanosine+stavudine, stavudine+lamivudine, didanosine+zidovudine, or lamivudine+zidovudine) was based on the patient's phenotypic sensitivity and the physician's choice at the time of administration. The regimens were as follows: […]
(§2) atazanavir 400 mg QD+saquinavir 1200 mg QD+2 nucleoside reverse transcriptase inhibitors atazanavir 600 mg QD+saquinavir 1200 mg QD+2 nucleoside reverse transcriptase inhibitors ritonavir 400 mg BID+saquinavir 400 mg BID+2 nucleoside reverse transcriptase inhibitors Patients were anti-retroviral-experienced with a treatment history of receiving a minimum of 24 weeks of a protease inhibitor-containing or non-nucleoside reverse transcriptase inhibitor-containing combination regimen. Stage 1 was to randomize approximately 75 subjects to assess the safety and antiviral activity of the regimens. […]

HIV [4] = assay: Phase II three-arm study atazanavir vs ritonavir, each with saquinavir + 2 NRTIs: antiviral activity; assay type: in vivo; details: atazanavir groups vs ritonavir
Experimental: as §1, §2

[5] = saquinavir dosed at 1200 mg TID; at steady-state; cited from earlier work

SMILES | reductions in viral load compared to the nelfinavir-treated patients (HIV [1]) | increases in plasma LDL-cholesterol [2] | increases in plasma triglycerides [2] | pKi (CYP3A) | LDL-cholesterol elevation over baseline [3] | antiviral efficacy through week 12, compared to ritonavir (HIV [4]) | increase of the exposure of saquinavir [5]
COC(=O)N[C@H](C(=O)N[C@@H](Cc1ccccc1)[C@@H](O)CN(Cc1ccc(-c2ccccn2)cc1)NC(=O)[C@@H](NC(=O)OC)C(C)(C)C)C(C)(C)C [atazanavir] | at least comparable | no increases | no increases | 5.62 | not elevated | similar | 
Cc1c(O)cccc1C(=O)N[C@@H](CSc1ccccc1)[C@H](O)CN1C[C@H]2CCCC[C@H]2C[C@H]1C(=O)NC(C)(C)C [nelfinavir] |  |  |  |  |  |  | 392%
